Test results taken from patent publication US9512128B2 (BAYER CROPSCIENCE AG, priority 2012, dated 2016).

Experiments:
Format in all cases: in vivo
[1] = test system: greenhouse red spider mite (Tetranychus urticae); test: Tetranychus urticae spray test, OP-resistant (TETRUR); conditions: after 6 days, bean leaf discs
Description: 4. Tetranychus urticae Spray Test, OP-Resistant (TETRUR)
(§1) • Solvents: 78.0 parts by weight of acetone • 1.5 part by weight of dimethylformamide • Emulsifier: 0.5 part by weight of alkylaryl polyglycol ether
(§2) To produce a suitable preparation of active compound, 1 part by weight of active compound is mixed with the stated amounts of solvents and emulsifier, and the concentrate is diluted with emulsifier-containing water to the desired concentration.
Discs of bean leaves (Phaseolus vulgaris) which are infested by all stages of the greenhouse red spider mite (Tetranychus urticae) are sprayed with an active compound preparation of the desired concentration.
After 6 days, the efficacy in % is determined. 100% means that all of the spider mites have been killed; 0% means that none of the spider mites have been killed.

[2] = test system: southern root-knot nematode (Meloidogyne incognita); test: Meloidogyne incognita test (MELGIN); conditions: application rate 20 ppm, after 14 days, lettuce
Description: 5. Meloidogyne incognita Test (MELGIN) • Solvent: 125.0 parts by weight of acetone To prepare a suitable active compound preparation, 1 part by weight of active compound is mixed with the stated amount of solvent and the concentrate is diluted with water to the desired concentration. Vessels are filled with sand, active compound solution, an egg/larvae suspension of the southern root-knot nematode (Meloidogyne incognita) and lettuce seeds. The lettuce seeds germinate and the plants develop. On the roots, galls are formed. After 14 days, the nematicidal effect in % is determined by the formation of galls. 100% means that no galls have been found; 0% means that the number of galls on the treated plants corresponds to the untreated control.

[3] = test system: larvae of the mustard beetle (Phaedon cochleariae); test: Phaedon cochleariae spray test (PHAECO); conditions: application rate 500 g/ha, after 7 days, Chinese cabbage leaf discs
Description: 2. Phaedon cochleariae Spray Test (PHAECO)
as §1, §2
After 7 days, the efficacy in % is determined. 100% means that all of the beetle larvae have been killed; 0% means that none of the beetle larvae have been killed.

Structure (SMILES)	efficacy in % (spider mites killed) ([1]; application rate 500 g/ha) [%]	nematicidal effect in % (formation of galls) [2] [%]	efficacy in % (beetle larvae killed) [3] [%]	efficacy in % (spider mites killed) ([1]; application rate 100 g/ha) [%]
CCn1ncc2nc(C)n(-c3cc(SCC(F)(F)F)c(C)cc3F)c(=O)c21 [Compound 160]	100	100	–	–
Cc1cc(F)c(-n2c(C)nc3cnn(C(C)C)c3c2=O)cc1SCC(F)(F)F [Compound 162]	100	90	–	–
CCn1ncc2ncn(-c3cc([S+]([O-])CC(F)(F)F)c(C)cc3F)c(=O)c21 (stereo not drawn) [Compound 163]	100	90	–	–
CCn1ncc2nc(C)n(-c3cc([S+]([O-])CC(F)(F)F)c(C)cc3F)c(=O)c21 (stereo not drawn) [Compound 164]	100	100	–	–
Cc1cc(F)c(-n2cnc3cnn(CC4CC4)c3c2=O)cc1SCC(F)(F)F [Compound 167]	100	100	–	–
Cc1cc(F)c(-n2cnc3cnn(CC4CC4)c3c2=O)cc1[S+]([O-])CC(F)(F)F (stereo not drawn) [Compound 169]	100	100	–	–
Cc1cc(F)c(-n2c(C)nc3cnn(CC4CC4)c3c2=O)cc1[S+]([O-])CC(F)(F)F (stereo not drawn) [Compound 170]	100	100	–	–
Cc1cc(F)c(-n2cnc3c(C)nsc3c2=O)cc1[S+]([O-])CC(F)(F)F (stereo not drawn) [Compound 181]	100	90	–	–
Cc1cc(F)c(-n2nnc3c(C)nsc3c2=O)cc1[S+]([O-])CC(F)(F)F (stereo not drawn) [Compound 183]	90	–	100	–
Cc1cc(F)c(-n2c(C)nc3ncsc3c2=O)cc1[S+]([O-])CC(F)(F)F (stereo not drawn) [Compound 188]	100	90	–	–
Cc1cc(F)c(-n2cnc3nsc(C(C)(C)C)c3c2=O)cc1SCC(F)(F)F [Compound 191]	100	–	100	–
Cc1cc(F)c(-n2cnc3onc(C)c3c2=O)cc1SCC(F)(F)F [Compound 194]	90	100	–	–
CCc1noc2ncn(-c3cc(SCC(F)(F)F)c(C)cc3F)c(=O)c12 [Compound 195]	90	90	–	–
Cc1cc(F)c(-n2cnc3onc(C)c3c2=O)cc1[S+]([O-])CC(F)(F)F (stereo not drawn) [Compound 196]	–	100	–	90
CCc1noc2ncn(-c3cc([S+]([O-])CC(F)(F)F)c(C)cc3F)c(=O)c12 (stereo not drawn) [Compound 198]	90	100	–	–
Cc1cc(F)c(-n2cnc3onc(C(F)(F)F)c3c2=O)cc1[S+]([O-])CC(F)(F)F (stereo not drawn) [Compound 199]	90	100	–	–
Cc1cc(F)c(-n2cnc3onc(C(C)C)c3c2=O)cc1[S+]([O-])CC(F)(F)F (stereo not drawn) [Compound 200]	100	100	–	–
Cc1cc(F)c(-n2cnc3snc(C)c3c2=O)cc1SCC(F)(F)F [Compound 202]	90	90	–	–
Cc1cc(F)c(-n2c(C)nc3snc(C)c3c2=O)cc1SCC(F)(F)F [Compound 209]	90	100	–	–
Cc1cc(F)c(-n2c(C)nc3snc(C)c3c2=O)cc1[S+]([O-])CC(F)(F)F (stereo not drawn) [Compound 210]	100	100	–	–
Cc1cc(F)c(-n2cnc3csnc3c2=O)cc1[S+]([O-])CC(F)(F)F (stereo not drawn) [Compound 212]	90	100	–	–
